These results are taken from US9968592B2, “Dyslipidemia therapeutic agent” (KOWA COMPANY, LTD., priority 2014, dated 2018).

The test system of this test is Male hamsters (Slc:Syrian). In words: Effect on LDL-C of hamster, oral administration once per day for two weeks. It is filed as in vivo. To be noted: single administration, vs control (Dunnett). The source says: Male hamsters (6-week-old, Slc:Syrian, Japan SLC, Inc.) were used for an experiment. Blood was collected from the jugular vein under satiation. The hamsters were divided into six groups (N=8) based on TG and TC in plasma and a body weight. For two weeks from the next day, each of a solvent (0.5% methylcellulose aqueous solution: MC), compound A alone, compound B alone, and combination of compound A and compound B was orally administered once per day. For comparison, for two weeks, each of compound C alone and combination of compound A and compound C was orally administered once per day. On the final day of administration of the pharmaceutical agent, blood was collected under fasting conditions for four hours and under isoflurane anesthesia, and LDL-C in plasma was measured using high performance liquid chromatography by a method of Usui et • a1. (Usui S et al. Clin Chem., 46, 63-72, 2000).
Group 2: 0.3 mg/kg of compound A
Group 3: 10 mg/kg of compound B
Group 4: 0.3 mg/kg of compound A and 10 mg/kg of compound B
Group 5: 10 mg/kg of compound C
Group 6: 0.3 mg/kg of compound A and 10 mg/kg of compound C
Results were presented by an average value±standard deviation. Comparison between the control group and each of the pharmaceutical agent administration groups was performed by a multiple comparison test of Dunnett, and a risk rate of less than 5% was determined to have a significant difference.

Where [1] appears, read: 10 mg/kg orally once per day for two weeks.

Each structure is given as a SMILES string.

As to `CCN(C[C@H]1CC[C@H](CC(=O)O)CC1)c1ccc(C(F)(F)F)cc1CN(c1ncc(OCCS(C)(=O)=O)cn1)[C@@H](C)c1cc(C(F)(F)F)cc(C(F)(F)F)c1` [compound B, (S)-trans-{4-[({2-[({1-[3,5-bis(trifluoromethyl)phenyl]ethyl}{5-[2-(methylsulfonyl)ethoxy]pyrimidin-2-yl}amino)methyl]-4-(trifluoromethyl)phenyl}(ethyl)amino)methyl]cyclohexyl} acetic acid], under setting [1], the LDL-C in plasma entry was “a clear influence on LDL-C was not observed”.
For the molecule `CC[C@@H](Oc1cccc(CN(CCCOc2ccc(OC)cc2)c2nc3ccccc3o2)c1)C(=O)O` [compound A, (R)-2-[3-[[N-(benzoxazol-2-yl)-N-3-(4-methoxyphenoxy)propyl]aminomethyl]phenoxy]butyric acid], the LDL-C in plasma entry (0.3 mg/kg orally once per day for two weeks) was “a clear influence on LDL-C was not observed”.
In the case of `COc1cc(F)c(C(C)C)cc1-c1ccc(C(F)(F)F)cc1CN1C(=O)O[C@H](c2cc(C(F)(F)F)cc(C(F)(F)F)c2)[C@@H]1C` [compound C, [4S,5R]-5-[3,5-bis(trifluoromethyl)phenyl]-3-{[4′-fluoro-2′-methoxy-5′-(propan-2-yl)-4-(trifluoromethyl)[1,1′-biphenyl]-2-yl]methyl}-4-methyl-1,3-oxazolidin-2-one, reference compound], the LDL-C in plasma entry under setting [1] is reported as “a clear influence on LDL-C was not observed”.
